Columns and labels:
RBE cells = experiment: Cell Viability Protocol (CellTiterGlo), RBE cells; type: cell-based; details: RBE or SNU-1079 cells, 72 or 120 hour, cell line and time not given
In short: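 After 72 h or 120 h compound exposure at 37° C, viability was read by CellTiterGlo as % of DMSO vehicle, with IC50 fitted by a 4-parameter curve. Cells had been seeded at 1200/well in 10% FBS RPMI 1640 and allowed 24 h before dosing.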

[1] = system: phospho-S6RP (Ser 235/236) in RBE cells; experiment: Cellular Proliferation Protocol (cellular phospho-S6RP HTRF), RBE cells; type: cell-based; details: 6 hours treatment, RBE or SNU-1079 cells, cell line not given
In short: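 Phospho-S6RP (Ser 235/236) was quantified by HTRF in lysed RBE cells (2000/well) after a 6 h treatment at 37° C, with overnight antibody incubation at room temperature. IC50 values came from 4-parameter dose-response fits relative to DMSO vehicle.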

SRC = SRC (Homo sapiens, UniProt P12931); experiment: SRC Biochemical Assay Protocol (microfluidic mobility shift assay, FLPeptide4 substrate)
In short: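 Mobility-shift readout of phosphorylated FLPeptide4 (1.5 μM) after 90 min kinase reaction with 50 μM ATP and 0.26 nM SRC in pH 7.4 HEPES buffer. Compounds, tested 0.0017–100 μM, were preincubated 30 min with enzyme and peptide; IC50 from 4-parameter logistic fit versus neutral controls.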

IC50 (SRC) [nM]	Molecule	IC50 (RBE cells) [nM]	IC50 ([1]; 6 h) [nM]	IC50 [1] [nM]
10 to 1000	C=CC(=O)N1CCC(N2CC(F)(C#Cc3c(-c4ccc(Oc5cccc(C)n5)cc4)c4c(N)ncnc4n3C)C2)CC1 [II-203, 1-(4-[3-[2-(4-amino-7-methyl-5-[4-[(6-methylpyridin-2-yl)oxy]phenyl]-7H-pyrrolo [2,3-d]pyrimidin-6-yl)ethynyl]-3-fluoroazetidin-1-yl]piperidin-1-yl)prop-2-en-1-one]	10 to 1000	10 to 1000	
10 to 1000	C=CC(=O)N1C[C@@H]2[C@@H](C#Cc3c(-c4c(Cl)ccc5c4OCO5)c4c(N)ncnc4n3C)[C@@H]2C1 [II-38]	10 to 1000		10 to 1000
10 to 1000	C=CC(=O)N1CCC(N2CC(F)(C#Cc3c(-c4ccc(Oc5ccccc5)cc4)c4c(N)ncnc4n3C)C2)C(O)C1 (stereo not drawn) [III-1]	≤ 10	≤ 10	
≤ 10	C=CC(=O)N1CC[C@H](N2CC(C#Cc3c(-c4ccc(F)c5c4OCO5)c4c(N)ncnc4n3C(C)C)C2)[C@H](F)C1 [II-286, 1-((3R,4S)-4-(3-((4-amino-5-(7-fluorobenzo[d][1,3]dioxol-4-yl)-7-isopropyl-7H-pyrrolo[2,3-d]pyrimidin-6-yl)ethynyl)azetidin-1-yl)-3-fluoropiperidin-1-yl)prop-2-en-1-one]	10 to 1000	≤ 10	
10 to 1000	C=CC(=O)N1CCC(N2CC(F)(C#Cc3c(-c4ccc(Oc5cccc(C)n5)cc4)c4c(N)ncnc4n3C)C2)C[C@H]1CO (stereo partly drawn) [II-204, 1-((2S)-4-(3-((4-amino-7-methyl-5-(4-((6-methylpyridin-2-yl)oxy)phenyl)-7H-pyrrolo[2,3-d]pyrimidin-6-yl)ethynyl)-3-fluoroazetidin-1-yl)-2-(hydroxymethyl)piperidin-1-yl)prop-2-en-1-one]	10 to 1000	10 to 1000	
10 to 1000	C=CC(=O)N1C[C@@H]2[C@@H](C#Cc3c(-c4ccc(Oc5cccc(C)n5)cc4OC)c4c(N)ncnc4n3CCCS(C)(=O)=O)[C@@H]2C1 [II-52]	1000 to 10000		10 to 1000
≤ 10	C=CC(=O)N1CCC(N2CC(C#Cc3c(-c4ccc(Cl)c(OC)n4)c4c(N)ncnc4n3C(C)C)C2)CC1 [II-327]	10 to 1000		10 to 1000
10 to 1000	COc1cc(-c2c(C#C[C@@H]3[C@H]4CN(C(=O)/C=C/CN(C)C)C[C@@H]34)n(C)c3ncnc(N)c23)ccc1Oc1cccc(C)n1 [II-239, (E)-1-((1R,5S,6s)-6-((4-amino-5-(3-methoxy-4-((6-methylpyridin-2-yl)oxy)phenyl)-7-methyl-7H-pyrrolo[2,3-d]pyrimidin-6-yl)ethynyl)-3-azabicyclo[3.1.0]hexan-3-yl)-4-(dimethylamino) but-2-en-1-one]	10 to 1000	10 to 1000	
1000 to 10000	C=CC(=O)N1CCC(N2CC(C#Cc3c(-c4ccc(Oc5ccccc5)cc4)c4c(N)ncnc4n3C3CC(=O)N(C)C3)C2)CC1 (stereo not drawn) [II-213, 4-(6-((1-(1-acryloylpiperidin-4-yl)azetidin-3-yl)ethynyl)-4-amino-5-(4-phenoxyphenyl)-7H-pyrrolo[2,3-d]pyrimidin-7-yl)-1-methylpyrrolidin-2-one]	1000 to 10000	1000 to 10000	
10 to 1000	C=CC(=O)N1CC[C@@H](N2CC(C#Cc3c(-c4ccc(Cl)c(CF)c4)c4c(N)ncnc4n3C)C2)[C@@H](O)C1 [II-58]	10 to 1000		10 to 1000
10 to 1000	C=CC(=O)N1CCC(N2CC(C#Cc3c(-c4ccc(Cl)c(OC)n4)c4c(N)ncnc4n3C)C2)CC1 [II-324]	10 to 1000		10 to 1000
10 to 1000	C=CC(=O)N1CCC(N2CC(F)(C#Cc3c(-c4ccc(Oc5ccccc5)c(OC)c4)c4c(N)ncnc4n3C)C2)CC1 [II-246, 1-(4-(3-((4-amino-5-(3-methoxy-4-phenoxyphenyl)-7-methyl-7H-pyrrolo[2,3-d]pyrimidin-6-yl)ethynyl)-3-fluoroazetidin-1-yl)piperidin-1-yl)prop-2-en-1-one]	≤ 10	10 to 1000	
1000 to 10000	C=CC(=O)N1CCC(N2CC(C#Cc3c(-c4c(Cl)ccc5c4OCO5)c4cncnc4n3C)C2)CC1 [II-29]	1000 to 10000		1000 to 10000
≤ 10	Cn1c(C#CC2CCCN(C(=O)/C=C/CN3CCC3)CC2)c(-c2ccc(Oc3ccccc3)cc2)c2c(N)ncnc21 (stereo not drawn) [II-182, (E)-1-(4-((4-amino-7-methyl-5-(4-phenoxyphenyl)-7H-pyrrolo[2,3-d]pyrimidin-6-yl)ethynyl)azepan-1-yl)-4-(azetidin-1-yl)but-2-en-1-one]	≤ 10	≤ 10	
10 to 1000	C=CC(=O)N1CCCC(C#Cc2c(-c3ccc(Oc4ccccc4)cc3)c3c(N)ncnc3n2C)CC1 (stereo not drawn) [II-178, 1-(4-((4-amino-7-methyl-5-(4-phenoxyphenyl)-7H-pyrrolo[2,3-d]pyrimidin-6-yl)ethynyl)azepan-1-yl)prop-2-en-1-one]	10 to 1000	10 to 1000	
≤ 10	C=CC(=O)N1CC[C@H](N2CC(C#Cc3c(-c4cccc5c4OCO5)c4c(N)ncnc4n3C(C)C)C2)[C@H](F)C1 [II-110]	10 to 1000		≤ 10
10 to 1000	C=CC(=O)N[C@H](CO)C(=O)N1CCC(C#Cc2c(-c3ccc(Oc4cccc(C)n4)cc3)c3c(N)ncnc3n2C)CC1 [II-200, (R)-N-(1-(4-((4-amino-7-methyl-5-(4-((6-methylpyridin-2-yl)oxy)phenyl)-7H-pyrrolo[2,3-d]pyrimidin-6-yl)ethynyl)piperidin-1-yl)-3-hydroxy-1-oxopropan-2-yl)acrylamide]	10 to 1000	10 to 1000	
≤ 10	C=CS(=O)(=O)N1CCC(N2CC(C#Cc3c(-c4ccc(Oc5ccccc5)c(OC)c4)c4c(N)ncnc4n3C)C2)CC1 [II-83]	10 to 1000		10 to 1000
≤ 10	C=CC(=O)N1CC[C@H](N2CC(C#Cc3c(-c4ccc(Cl)c(C(F)F)c4)c4c(N)ncnc4n3C(C)C)C2)[C@H](O)C1 [II-118]	10 to 1000		10 to 1000
≤ 10	C=CC(=O)N1C[C@@H]2[C@@H](C#Cc3c(-c4ccc(Oc5cccc(C)n5)cc4)c4c(N)ncnc4n3C3CCOC3)[C@@H]2C1 (mixture of isomers) [II-24]	≤ 10		≤ 10
1000 to 10000	C=CC(=O)N1CCC(N2CC(C#Cc3c(-c4cccc5c4cnn5C)c4c(N)ncnc4n3C)C2)CC1 [II-93]	1000 to 10000		1000 to 10000
10 to 1000	C=CC(=O)N1CCC(C#Cc2c(-c3ccc(Oc4ccccc4)cc3)c3c(N)ncnc3n2C)CC1 [Example I-4]	10 to 1000	≤ 10	
≤ 10	CC(C)n1c(C#C[C@@H]2[C@H]3CN(C(=O)/C=C/CN(C)C)C[C@@H]23)c(-c2ccc(F)c3c2OCO3)c2c(N)ncnc21 [II-293]	≤ 10	≤ 10	
10 to 1000	C=CC(=O)N1CC[C@@H](N2CC(C#Cc3c(-c4ccc(OC(F)(F)F)cc4)c4c(N)ncnc4n3C)C2)[C@@H](O)C1 [II-73]	10 to 1000		10 to 1000
1000 to 10000	C=CC(=O)N1CC2C(C#Cc3c(-c4cccc5c4OC(F)(F)O5)c4c(N)ncnc4n3C)C2C1 (stereo not drawn) [II-129]	10 to 1000		1000 to 10000
≤ 10	CCn1c(C#C[C@@H]2[C@H]3CN(C(=O)/C=C/CN(C)C)C[C@@H]23)c(-c2cccc3c2OCO3)c2c(N)ncnc21 [II-117]	≤ 10		≤ 10
≤ 10	C=CC(=O)N1CC[C@@H](N2CC(C#Cc3c(-c4ccc(Oc5ccccc5)c(OC)n4)c4c(N)ncnc4n3C)C2)[C@@H](F)C1 [II-330]	≤ 10		≤ 10
10 to 1000	COC/C=C/C(=O)N1CCC(N2CC(C#Cc3c(-c4ccc(Oc5ccccc5)cc4)c4c(N)ncnc4n3C)C2)CC1 [II-187, (E)-1-(4-(3-((4-amino-7-methyl-5-(4-phenoxyphenyl)-7H-pyrrolo[2,3-d]pyrimidin-6-yl)ethynyl)azetidin-1-yl)piperidin-1-yl)-4-methoxybut-2-en-1-one]	≤ 10	≤ 10	
10 to 1000	C=CC(=O)N1CCC(N2CC(C#Cc3c(-c4cccc5c4OCO5)c4c(N)ncnc4n3C)C2)CC1 [II-37]	10 to 1000		10 to 1000
10 to 1000	1-(4-(3-((4-amino-5-(3-ethoxy-4-phenoxyphenyl)-7-methyl-7H-pyrrolo[2,3-d]pyrimidin-6-yl)ethynyl)azetidin-1-yl)piperidin-1-yl)prop-2-en-1-one [II-36]	10 to 1000		10 to 1000

Molecule	IC50 (SRC) [nM]	IC50 (RBE cells) [nM]	IC50 ([1]; 6 h) [nM]	IC50 [1] [nM]
Cc1ccnc(Oc2ccc(-c3c(C#C[C@@H]4[C@H]5CN(C(=O)/C=C/CN6CCC(F)C6)C[C@@H]45)n(C)c4ncnc(N)c34)cc2)c1 (stereo partly drawn) [II-240, (E)-1-((1R,5S,6s)-6-((4-amino-7-methyl-5-(4-((4-methylpyridin-2-yl)oxy)phenyl)-7H-pyrrolo[2,3-d]pyrimidin-6-yl)ethynyl)-3-azabicyclo[3.1.0]hexan-3-yl)-4-(3-fluoropyrrolidin-1-yl)but-2-en-1-one]	10 to 1000	10 to 1000		10 to 1000
